Measurements published in US11873354B2, “Photobase generator, compound, photoreactive composition, and reaction product” (Tokyo University of Science Foundation, priority 2019, dated 2024).
Entries after “also recorded” stand apart in the source; their conditions may differ.

Key:
Format in all cases: physicochemical
[1] = Color reaction experiment of phenol red (basicity, UV-Vis); conditions: for peak showing basicity near 570 nm: methanol solution with phenol red, UV-Vis
Procedure: Next, it was confirmed that 2-methyl-2-imidazoline (2MI), which is generated by light irradiation to the compound (1)-2, is a stronger base than cyclohexylamine (CyA), which is an aliphatic amine, by a color reaction experiment of phenol red. First, 2MI, CyA and diazabicycloundecene (DBU) were prepared as bases, and 1.5 mL of methanol solution, in which the concentration was prepared at 2.0×10^−5 mol/L, was added to 1.5 mL of a methanol solution in which each base was dissolved. The basicity of each base was evaluated by measuring the UV-Vis spectrum of each of the solution.

[2] = Absorbance of compound in methanol under light irradiation (Test Examples 1, 2, 7, 8); conditions: methanol solution; for molar absorption coefficient ε313: 313 nm; for molar absorption coefficient ε365: 365 nm
Procedure: (§1) The above-obtained compound (1)-1 was dissolved in methanol so as to have a concentration of 2.5×10^−5 mol/L. Then, using an LED lamp, the illuminance was set to 50 mW/cm^2, the exposure dose was set to 0, 50, 150 or 300 mJ/cm^2, and the obtained methanol solution was irradiated with light having a wavelength of 365 nm. Then, the absorbance of the compound (1)-1 was measured.
as §1, with “a mercury xenon” for “an LED”, “100” for “150”, “280” for “300”, “313” for “365”
as §1, with “(1)-3” for “(1)-1”, “1.5×10^−5” for “2.5×10^−5”, “100, 200” for “150”, “350” for “300”, “measured. In Test Example 7, the molar absorption coefficient was ε365=1.2×10^4 L/(mol cm).” for “measured.”
The above-obtained compound (1)-3 was dissolved in methanol so as to have a concentration of 1.5×10^−5 mol/L. Then, using a mercury xenon lamp, the illuminance was set to 10 mW/cm^2, the exposure dose was set to 0, 50, 100, 200 or 350 mJ/cm^2, and the obtained methanol solution was irradiated with light having a wavelength of 313 nm. Then, the absorbance of the compound (1)-3 was measured. In Test Example 8, the molar absorption coefficient was ε313=2.8×10^4 L/(mol cm).

Solubility test = conditions: chloroform, dimethyl sulfoxide and the like; compared with compound (1)-2
[3] = pH test paper after irradiation of aqueous solution; conditions: 365 nm
[4] = Preservation stability of liquid mixture with base-reactive compound (9)-301 (Test Examples 3, 4); conditions: with (9)-301 in methanol, dark place, 25° C., 6 days
Procedure: A base-reactive compound (9)-301 (0.10 g) as shown below, the compound (1)-1 (0.012 g, 8 molar % with respect to the methoxy group in the base-reactive compound), and methanol (0.51 g) were added in a glass bottle to prepare a liquid mixture.
The liquid mixture was stored in a dark place at 25° C. for 6 days. After storage for 6 days, the glass bottle was shaken or inverted to confirm that the liquid mixture in the glass bottle was liquid.
The base-reactive compound (9)-301 (0.10 g), the compound (2)-1 (0.013 g, 8 molar % with respect to the methoxy group in the base-reactive compound), and methanol (0.50 g) were added in a glass bottle to prepare a liquid mixture.
The liquid mixture was stored in a dark place at 25° C. for 4 days. After storage for 4 days, the glass bottle was shaken or inverted to confirm that the liquid mixture in the glass bottle was gelled.

Row | Structure (SMILES) | molar absorption coefficient ε313 [2] [L/mol/cm] | molar absorption coefficient ε365 [2] [L/mol/cm] | peak showing basicity near 570 nm [1] | further results
1 | CC1=NCCN1 [Compound 2MI, 2-methyl-2-imidazoline] | – | – | a peak showing basicity appeared near 570 nm | relative basicity ([1]; from peak intensity near 570 nm): weaker than that of DBU; also recorded: stronger than that of CyA
2 | C1CCC2=NCCCN2CC1 [DBU, diazabicycloundecene] | – | – | a peak showing basicity appeared near 570 nm | –
3 | NC1CCCCC1 [CyA, cyclohexylamine] | – | – | no peak showing basicity appeared near 570 nm | –
4 | CC1=NCCN1C(=O)/C=C/c1ccccc1O [Compound (1)-2] | – | – | – | pH test paper after light irradiation [3]: discolored to the basic side

More lines, main results first:

Row | molar absorption coefficient ε313 [2] [L/mol/cm] | molar absorption coefficient ε365 [2] [L/mol/cm] | Structure (SMILES) | peak showing basicity near 570 nm [1] | further results
5 | 28000 | 12000 | CC1=NCCN1C(=O)/C=C/c1cc(C(C)(C)C)cc(C(C)(C)C)c1O [Compound (1)-3] | – | solubility (Solubility test): improved in solubility
6 | 16000 | 3100 | CN(C)C(=NC(=O)/C=C/c1ccccc1O)N(C)C [Compound (1)-1] | – | state of liquid mixture after storage [4]: liquid
